# Tested on: Old mice
# Experiment: Wire hang test
# Type: in vivo, mouse
# Details: creatine 120 mg/kg
# Procedure: The test was performing using a wire having a diameter of 2 mm installed at a height of 25 cm. Each mouse was placed on the wire using only the front legs, and the time of hanging without falling was measured. The time when the mouse was suspended and then dropped was measured and the test was conducted for a maximum of 120 seconds. In this way, each mouse was repeated 3 times at approximately 20 minute intervals. The results of each mouse were analyzed for the average value of the first and longest hanging time in three trials. […] In addition, creatine 120 mg/kg (creatine-120) was administered to mice as a positive control, and the test was conducted under the same conditions.
smiles,measurement,value
CN(CC(=O)O)C(=N)N [creatine],wire hang effect of positive control vs aging mouse group,more effective than the aging mouse group
